The source of these data is PMC7377239, “Cardiovascular Effects of Polychlorinated Biphenyls and Their Major Metabolites” (Environmental Health Perspectives, 2020).

One test has as its system HUVECs. Kind of test: Tube formation (tubulogenesis) assay in HUVECs, 18 h. The class given is cell-based, human. The settings on record: Homo sapiens, HUVEC, 18 h, HUVEC. The procedure, abridged: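 HUVECs (passage 1–5) seeded on reduced-growth-factor basement membrane and exposed to compounds overnight at 37°C, 5% CO2, in 2× maintenance medium with 12.5 ng/mL VEGF; 0.5% DMSO vehicle. Calcein AM-stained tube networks imaged and analysed; vehicle-normalized readouts fit to four-parameter logistic, POD set at one SD of vehicle means.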

In test [1] the test system is iCell endothelial cells (human iPSC-derived ECs). Kind of test: High-content imaging cytotoxicity in iCell endothelial cells, 24 h. The note with it: Homo sapiens, Endothelial cell, endothelial cells (endo), 24 hr. The test is classed as cell-based. Put shortly: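 Readouts were vehicle-normalised and fitted to a four-parameter logistic model. POD was set at one SD beyond 0.5% DMSO control means, and 100 µM was assigned when no response was seen. Cells were monolayers of iCell endothelial cells imaged after 24 h compound exposure using nuclear, mitochondrial and calcein dyes.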

Like-named read-outs stand apart in the source and are kept apart here.

As for `Oc1cc(Cl)c(-c2cc(Cl)ccc2Cl)cc1Cl` [4-OH-PCB 52], the minimal effective concentration with HUVECs (tube formation mtl, read-out: POD huvec.mtl.18hr) turned out to be 8.34 µM; in the test with HUVECs (tube formation tlps, read-out: POD huvec.tlps.18hr) it was 4.13 µM; in the test on HUVECs (tube formation tta, read-out: POD huvec.tta.18hr) it was 51.8 µM; in the test with HUVECs (tube formation ttl, read-out: POD huvec.ttl.18hr), 62.1 µM; in test [1] (cyto, read-out: POD endo.cyto.24hr), 13.2 µM; in test [1] (mito, read-out: POD endo.mito.24hr), 13.2 µM. Besides, the minimal effective concentration in test [1] (mitoint, read-out: POD endo.mitoint.24hr) was determined as 43.8 µM; in test [1] (nma, read-out: POD endo.nma.24hr), 63.5 µM; in test [1] (tc, read-out: POD endo.tc.24hr), 16.6 µM.
